# Assay results as given in patent publication US20100298141A1, “SUBSTITUTED PYRIDINE N-OXIDE HERBICIDES” (E. I. DU PONT DE NEMOURS AND COMPANY, priority 2007, published 2010).
# Tests used:
# downy brome = experiment: Test C pre-/postemergence test; assay type: in vivo, Bromus tectorum
# How it was run: (§1)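 Compounds in a non-phytotoxic solvent with surfactant applied preemergence to seeded pots and, at the same time, postemergence to plants 2–18 cm tall (1- to 4-leaf stage). Paddy tests: pots flooded to 3 cm, compound applied into the water, depth held throughout.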
# corn = experiment: Test C pre-/postemergence test; assay type: in vivo, Zea mays
# How it was run: as §1
# umbrella sedge = experiment: Test C flooded paddy test; assay type: in vivo, Cyperus difformis; settings: Flood
# How it was run: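 Ratings were visual and made relative to untreated controls after 13 to 15 greenhouse days.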
# cocklebur = experiment: Test C pre-/postemergence test; assay type: in vivo, Xanthium strumarium
# How it was run: as §1
# yellow nutsedge = experiment: Test C pre-/postemergence test; assay type: in vivo, Cyperus esculentus
# How it was run: as §1
# lambsquarters = experiment: Test C pre-/postemergence test; assay type: in vivo, Chenopodium album
# How it was run: as §1
# giant foxtail [1] = experiment: Test C pre-/postemergence test; assay type: in vivo, Setaria faberii
# How it was run: as §1
# johnsongrass = experiment: Test C pre-/postemergence test; assay type: in vivo, Sorghum halepense
# How it was run: as §1
# morningglory [2] = experiment: Test A pre-/postemergence greenhouse test; assay type: in vivo, Ipomoea spp.; settings: for Plant response rating, Morningglory: 0 to 100 scale where 0 is no effect and 100 is complete control; for Morningglory plant response rating: 0 to 100 scale
# How it was run: (§2)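 Sowing in loam/sand; same-day pre (directed soil spray) and post (foliar, 1–2 leaf, 2–10 cm) treatment with surfactant-containing non-phytotoxic solvent formulation; ~10 days in greenhouse; eye-scored injury against untreated plants.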
# common ragweed = experiment: Test C pre-/postemergence test; assay type: in vivo, Ambrosia elation; settings: preemergence, scale 0 (no effect) to 100 (complete control)
# How it was run: as §1
# crabgrass = experiment: Test A pre-/postemergence greenhouse test; assay type: in vivo, Digitaria sanguinalis; settings: for Plant response rating, Crabgrass, Large: 0 to 100 scale where 0 is no effect and 100 is complete control; for Crabgrass, Large plant response rating: 0 to 100 scale
# How it was run: as §2
# giant foxtail [3] = experiment: Test A pre-/postemergence greenhouse test; assay type: in vivo, Setaria faberi; settings: for Plant response rating, Foxtail, Giant: 0 to 100 scale where 0 is no effect and 100 is complete control; for Foxtail, Giant plant response rating: 0 to 100 scale
# How it was run: as §2
# woolly cupgrass = experiment: Test C pre-/postemergence test; assay type: in vivo, Eriochloa villosa
# How it was run: as §1
# morningglory [4] = experiment: Test C pre-/postemergence test; assay type: in vivo, Ipomoea coccinea
# How it was run: as §1
# Goosegrass = experiment: Test C pre-/postemergence test; assay type: in vivo, Eleusin indica
# How it was run: as §1
# wheat = experiment: Test A pre-/postemergence greenhouse test; assay type: in vivo, Triticum aestivum; settings: for Wheat plant response rating: 0 to 100 scale
# How it was run: as §2
# soybean = experiment: Test C pre-/postemergence test; assay type: in vivo, Glycine max
# How it was run: as §1
# [5] = Preemergence, 31 g ai/ha, scale 0 to 100 (0 no effect, 100 complete control)
# [6] = preemergence, 250 g ai/ha, scale 0 (no effect) to 100 (complete control)
# [7] = 62 g ai/ha, Preemergence, scale 0 to 100
# [8] = 125 g ai/ha, preemergence, scale 0 (no effect) to 100 (complete control)
# [9] = Postemergence, 500 g ai/ha, 0 is no effect, 100 is complete control
# [10] = Preemergence, 125 g ai/ha, 0 no effect, 100 complete control
structure (smiles),measurement,setting,value
CC(Oc1c(C[S+]([O-])c2ccc(Cl)c[n+]2[O-])c(C(F)(F)F)nn1C)C(F)(F)F (centres unmarked) [Compound 87],"Plant response rating, Bromegrass, Downy",downy brome; [5],80
same,"Bromegrass, Downy plant response rating",downy brome; [6],100
same,Corn plant response rating,corn; [7],95
same,Corn plant response rating,corn; [8],95
same,"Plant response rating, Corn",corn; [5],85
same,Corn plant response rating,corn; [6],98
same,"Plant response rating, Sedge, Umbrella","umbrella sedge; 62 g ai/ha, scale 0 to 100 (0 no effect, 100 complete control)",60
same,"Plant response rating, Sedge, Umbrella","umbrella sedge; 250 g ai/ha, scale 0 to 100, 0 no effect, 100 complete control, 13 to 15 days",95
same,Cocklebur plant response rating,cocklebur; [7],0
same,Cocklebur plant response rating,cocklebur; [8],20
same,"Plant response rating, Cocklebur",cocklebur; [5],0
same,Cocklebur plant response rating,cocklebur; [6],40
same,"Nutsedge, Yellow plant response rating",yellow nutsedge; [7],50
same,"Nutsedge, Yellow plant response rating",yellow nutsedge; [8],80
same,"Plant response rating, Nutsedge, Yellow",yellow nutsedge; [5],50
same,"Nutsedge, Yellow plant response rating",yellow nutsedge; [6],100
same,Lambsquarters plant response rating,lambsquarters; [7],85
same,Lambsquarters plant response rating,lambsquarters; [8],100
same,"Plant response rating, Lambsquarters",lambsquarters; [5],60
same,Lambsquarters plant response rating,lambsquarters; [6],100
same,"Foxtail, Giant plant response rating",giant foxtail [1]; [7],95
same,"Foxtail, Giant plant response rating",giant foxtail [1]; [8],100
same,"Plant response rating, Foxtail, Giant",giant foxtail [1]; [5],85
same,"Foxtail, Giant plant response rating",giant foxtail [1]; [6],100
same,Johnsongrass plant response rating,johnsongrass; [7],100
same,Johnsongrass plant response rating,johnsongrass; [8],100
same,"Plant response rating, Johnsongrass",johnsongrass; [5],90
same,Johnsongrass plant response rating,johnsongrass; [6],100
same,"Plant response rating, Morningglory","morningglory [2]; Postemergence, 125 g ai/ha",40
same,Morningglory plant response rating,morningglory [2]; [9],100
same,Morningglory plant response rating,morningglory [2]; [10],20
same,"Plant response rating, Morningglory","morningglory [2]; Preemergence, 500 g ai/ha",100
same,Ragweed plant response rating,common ragweed; 125 g ai/ha,70
same,Ragweed plant response rating,common ragweed; 250 g ai/ha,80
same,"Plant response rating, Crabgrass, Large","crabgrass; Postemergence, 125 g ai/ha",80
same,"Crabgrass, Large plant response rating",crabgrass; [9],90
same,"Crabgrass, Large plant response rating",crabgrass; [10],90
same,"Plant response rating, Crabgrass, Large","crabgrass; Preemergence, 500 g ai/ha",100
same,"Plant response rating, Foxtail, Giant","giant foxtail [3]; Postemergence, 125 g ai/ha",90
same,"Foxtail, Giant plant response rating",giant foxtail [3]; [9],90
same,"Foxtail, Giant plant response rating",giant foxtail [3]; [10],90
same,"Plant response rating, Foxtail, Giant","giant foxtail [3]; Preemergence, 500 g ai/ha",100
same,"Cupgrass, Woolly plant response rating",woolly cupgrass; [7],90
same,"Cupgrass, Woolly plant response rating",woolly cupgrass; [8],98
same,"Plant response rating, Cupgrass, Woolly",woolly cupgrass; [5],80
same,"Cupgrass, Woolly plant response rating",woolly cupgrass; [6],100
same,Morningglory plant response rating,morningglory [4]; [7],80
same,Morningglory plant response rating,morningglory [4]; [8],80
same,"Plant response rating, Morningglory",morningglory [4]; [5],60
same,Morningglory plant response rating,morningglory [4]; [6],95
same,Goosegrass plant response rating,Goosegrass; [7],100
same,Goosegrass plant response rating,Goosegrass; [8],100
same,"Plant response rating, Goosegrass",Goosegrass; [5],98
same,Goosegrass plant response rating,Goosegrass; [6],100
same,"Plant response rating, Wheat","wheat; Postemergence, 125 g ai/ha, 0 to 100 scale where 0 is no effect and 100 is complete control",60
same,Wheat plant response rating,wheat; [9],70
same,Wheat plant response rating,wheat; [10],70
same,Wheat plant response rating,"wheat; Preemergence, 500 g ai/ha, 0 no effect, 100 complete control",100
same,Soybean plant response rating,soybean; [7],65
same,Soybean plant response rating,soybean; [8],80
same,"Plant response rating, Soybean",soybean; [5],65
same,Soybean plant response rating,soybean; [6],80
